Source: US7589097B2, “Triazol[4,5-d] pyramidine derivatives and their use as purinergic receptor antagonists” (Vernalis Research Limited, priority 2001, dated 2009)

Tested on: not given
Assay: not given

Compound | melting point
CC(C)(C)OC(=O)n1ccc2cc(Cn3nnc4c(-c5ccco5)nc(N)nc43)ccc21 [Example 142, tert-butyl 5-(5-amino-7-(2-furyl)-3H-[1,2,3]triazolo[4,5-d]pyrimidine-3-ylmethyl)indole-1-carboxylate] | 189 to 189.1 °C
CNC(=O)c1cccc(Cn2nnc3c(-c4ccc(C)o4)nc(N)nc32)c1 [Example 67, 3-(5-amino-7-(5-methyl-2-furyl)-3H-[1,2,3]triazolo[4,5-d]pyrimidin-3-ylmethyl)-N-methylbenzamide] | 252.9 to 253 °C
Cc1c(Cn2nnc3c(-c4ccco4)nc(N)nc32)cccc1[N+](=O)[O-] [Example 88, 7-(2-furyl)-3-(2-methyl-3-nitrobenzyl)-3H-[1,2,3]triazolo[4,5-d]pyrimidine-5-amine] | 258.8 to 259 °C
Cc1ccc(-c2nc(N)nc3c2nnn3Cc2ccc(N)c(F)c2)o1 [Example 174, 3-(4-amino-3-fluorobenzyl)-7-(5-methyl-2-furyl)-3H-[1,2,3]triazolo[4,5-d]pyrimidine-5-amine] | > 200 °C (dec.)
COCCc1cccc(Cn2nnc3c(-c4ccco4)nc(N)nc32)n1 [Example 264, 7-(2-furyl)-3-(6-(2-methoxyethyl)-2-pyridylmethyl)-3H-[1,2,3]triazolo[4,5-d]pyrimidine-5-amine] | 162 to 162.6 °C
N#CCc1cccc(Cn2nnc3c(-c4ccco4)nc(N)nc32)n1 [Example 220, 3-(6-Cyanomethyl-2-pyridylmethyl)-7-(2-furyl)-3H-[1,2,3]triazolo[4,5-d]pyrimidine-5-amine] | 223.3 to 223.4 °C
Nc1cccc(Cn2nnc3c(-c4ccn[nH]4)nc(N)nc32)c1 [Example 175, 3-(3-aminobenzyl)-7-(1H-pyrazol-3-yl)-3H-[1,2,3]triazolo[4,5-d]pyrimidine-5-amine] | 279.3 to 281.3 °C
Cc1ccc(-c2nc(N)nc3[nH]nnc23)o1 [Example 19, 7-(5-Methyl-2-furyl)-1H-[1,2,3]triazolo[4,5-d]pyrimidine-5-amine] | 291.8 to 292 °C
Nc1cccc(Cn2nnc3c(-c4ccc[nH]4)nc(N)nc32)c1 [Example 191, 3-(3-aminobenzyl)-7-(1H-pyrrol-2-yl)-3H-[1,2,3]triazolo[4,5-d]pyrimidine-5-amine] | 186.1 to 189.1 °C
Nc1nc(-c2cncs2)c2nnn(Cc3cccc([N+](=O)[O-])c3)c2n1 [Example 45, 3-(3-nitrobenzyl)-7-(5-thiazolyl)-3H-[1,2,3]triazolo[4,5-d]pyrimidine-5-amine] | 190.4 to 190.8 °C
Nc1nc(-c2ccco2)c2nnn(Cc3cc([N+](=O)[O-])cc([N+](=O)[O-])c3)c2n1 | 264.5 to 264.8 °C
Cc1ccc(-c2nc(N)nc3c2nnn3Cc2cccc([N+](=O)[O-])c2C)o1 [Example 267, 7-(5-methyl-2-furyl)-3-(2-methyl-3-nitrobenzyl)-3H-[1,2,3]triazolo[4,5-d]pyrimidine-5-amine] | 255.6 to 255.7 °C
CC(c1ccc(C(F)(F)F)cc1)n1nnc2c(-c3ccco3)nc(N)nc21 (stereo not shown) [Example 256, 7-(2-furyl)-3-(1-(4-frifluoromethylphenyl)ethyl)-3H-[1,2,3]triazolo[4,5-d]pyrimidine-5-amine] | 167.6 to 168.1 °C
Nc1nc(-c2ccco2)c2nnn(CCc3cccs3)c2n1 [Example 196, 7-(2-furyl)-3-(2-(2-thienylethyl))-3H-[1,2,3]triazolo[4,5-d]pyrimidine-5-amine] | 178.4 to 179 °C
Nc1nc(-c2ccco2)c2nnn(Cc3cccc4cc[nH]c34)c2n1 [Example 154, 7-(2-furyl)-3-(7-indolylmethyl)-3H-[1,2,3]triazolo[4,5-d]pyrimidine-5-amine] | 295.3 to 295.5 °C
Nc1nc(-c2ccco2)c2nnn(CC(=O)c3ccccc3[N+](=O)[O-])c2n1 [Example 235, 2-(5-amino-7-(2-furyl)-3H-[1,2,3]triazolo[4,5-d]pyrimidin-3-yl)-1-(2-nitrophenyl)ethanone] | 231.6 to 231.7 °C
Cc1ccc(-c2nc(N)nc3c2nnn3Cc2cccc(-c3ccccc3)n2)o1 [Example 82, 7-(5-methyl-2-furyl)-3-(6-phenyl-2-pyridylmethyl)-3H-[1,2,3]triazolo[4,5-d]pyrimidine-5-amine] | 205 to 205.3 °C
C=CCOCc1cccc(Cn2nnc3c(-c4ccco4)nc(N(CC=C)CC=C)nc32)n1 [Example 182, 3-(6-Allyloxymethyl-2-pyridylmethyl)-N,N-diallyl-7-(2-furyl)-3H-[1,2,3]triazolo[4,5-d]pyrimidine-5-amine] | 92.3 to 92.7 °C
CC(C)(C)OC(=O)NCc1ccc(Cn2nnc3c(-c4ccco4)nc(N)nc32)cc1 [Example 140, tert-butyl N-(4-(5-amino-7-(2-furyl)-3H-[1,2,3]triazolo[4,5-d]pyrimidine-3-ylmethyl)benzyl)carbamate] | 184 to 185.2 °C
CCOc1cccc(Cn2nnc3c(-c4ccc(C)o4)nc(N)nc32)n1 [Example 254, 3-(6-ethoxy-2-pyridylmethyl)-7-(5-methyl-2-furyl)-3H-[1,2,3]triazolo[4,5-d]pyrimidine-5-amine] | 190.8 to 190.9 °C
Cc1ccc(-c2nc(N)nc3c2nnn3Cc2cccc(Cl)c2)o1 [Example 62, 3-(3-chlorobenzyl)-7-(5-methyl-2-furyl)-3H-[1,2,3]triazolo[4,5-d]pyrimidine-5-amine] | 210.4 to 210.5 °C
CS(=O)(=O)N(Cc1cccc(Cn2nnc3c(-c4ccco4)nc(N)nc32)n1)Cc1cccc(Cn2nnc3c(-c4ccco4)nc(N)nc32)n1 [Example 237, N,N-bis(6-(5-amino-7-(2-furyl)-3H-[1,2,3]triazolo[4,5-d]pyrimidine-3-ylmethyl)-2-pyridylmethyl)methanesulphonamide] | 259.3 to 259.4 °C
CC(c1cccc(F)c1)n1nnc2c(-c3ccco3)nc(N)nc21 (stereo not shown) [Example 260, 3-(1-(3-fluorophenyl)ethyl)-7-(2-furyl)-3H-[1,2,3]triazolo[4,5-d]pyrimidine-5-amine] | 150.3 to 151 °C

Other lines, results leading:

melting point | Compound
239.6 to 239.8 °C | Nc1nc(-c2ccco2)c2nnn(Cc3ccc(N)c(O)c3)c2n1 [Example 173, 3-(4-amino-3-hydroxybenzyl)-7-(2-furyl)-3H-[1,2,3]triazolo[4,5-d]pyrimidine-5-amine]
244.1 to 244.6 °C | Nc1nc(-c2ccco2)c2nnn(Cc3ccc4nonc4c3)c2n1 [Example 111]
191.7 to 191.9 °C | CC(C)c1cc(Cn2nnc3c(-c4ccco4)nc(N)nc32)ccc1[N+](=O)[O-] [Example 187, 7-(2-furyl)-3-(3-isopropyl-4-nitrobenzyl)-3H-[1,2,3]triazolo[4,5-d]pyrimidine-5-amine]
196 to 196.1 °C | Nc1nc(-c2ccco2)c2nnn(Cc3cccc(CBr)n3)c2n1 [Example 218, 3-(6-bromomethyl-2-pyridylmethyl)-7-(2-furyl)-3H-[1,2,3]triazolo[4,5-d]pyrimidine-5-amine]
> 300 °C (dec.) | Nc1nc(-c2ccco2)c2nnn(Cc3ccc4[nH]ncc4c3)c2n1 [Example 200, 7-(2-furyl)-3-(5-indazolylmethyl)-3H-[1,2,3]triazolo[4,5-d]pyrimidine-5-amine]
237.8 to 238 °C | Cc1cc(Cn2nnc3c(-c4ccco4)nc(N)nc32)ccc1[N+](=O)[O-] [Example 94, 7-(2-furyl)-3-(3-methyl-4-nitrobenzyl)-3H-[1,2,3]triazolo[4,5-d]pyrimidine-5-amine]
247.4 to 247.5 °C | Nc1nc(-c2ccco2)c2nnn(Cc3ccc(Cl)c([N+](=O)[O-])c3)c2n1 [Example 110, 3-(4-chloro-3-nitrobenzyl)-7-(2-furyl)-3H-[1,2,3]triazolo[4,5-d]pyrimidine-5-amine]
228.7 to 228.9 °C | Nc1nc(-c2ccco2)c2nnn(Cc3cccc(F)n3)c2n1 [Example 71, 3-(6-fluoro-2-pyridylmethyl)-7-(2-furyl)-3H-[1,2,3]triazolo[4,5-d]pyrimidine-5-amine]
> 250 °C (dec.) | NCc1ccccc1Cn1nnc2c(-c3ccco3)nc(N)nc21 [Example 161, 3-(2-aminomethylbenzyl)-7-(2-furyl)-3H-[1,2,3]triazolo[4,5-d]pyrimidine-5-amine]
190.4 to 191.4 °C | COCc1cccc(Cn2nnc3c(-c4ccco4)nc(N)nc32)n1 [Example 112, 7-(2-furyl)-3-(6-methoxymethyl-2-pyridylmethyl)-3H-[1,2,3]triazolo[4,5-d]pyrimidine-5-amine]
215 to 215.3 °C | Nc1nc(-c2ccco2)c2nnn(Cc3csc(-c4ccccc4)n3)c2n1 [Example 108, 7-(2-furyl)-3-(2-phenylthiazol-4-ylmethyl)-3H-[1,2,3]triazolo[4,5-d]pyrimidine-5-amine]

Target: human adenosine A2A receptors (Homo sapiens, UniProt P29274)
Assay: Binding affinities at hA2A receptors, displacement of [3H]-CGS 21680
Source text: Adenosine Receptor Binding Binding Affinities at hA2A Receptors

Sequence of human adenosine A2A receptors (P29274 whole entry): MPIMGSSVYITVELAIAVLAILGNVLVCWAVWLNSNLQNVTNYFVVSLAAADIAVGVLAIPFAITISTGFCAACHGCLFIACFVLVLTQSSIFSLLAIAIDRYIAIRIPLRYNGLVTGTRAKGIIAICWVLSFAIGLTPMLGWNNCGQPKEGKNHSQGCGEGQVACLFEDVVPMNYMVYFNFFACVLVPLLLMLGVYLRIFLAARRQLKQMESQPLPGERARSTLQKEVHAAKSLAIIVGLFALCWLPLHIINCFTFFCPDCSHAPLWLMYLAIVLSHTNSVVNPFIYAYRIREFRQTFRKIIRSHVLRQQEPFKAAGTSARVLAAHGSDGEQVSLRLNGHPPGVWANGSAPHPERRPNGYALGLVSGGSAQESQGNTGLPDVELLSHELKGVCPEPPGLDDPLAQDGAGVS

Ki | Compound
3 nM | Nc1nc(-c2ccco2)c2nnn(Cc3ccc(Cl)s3)c2n1 [Example 8, 3-(5-chloro-2-thienyl)methyl-7-(2-furyl)-3H-[1,2,3]triazolo[4,5-d]pyrimidine-5-amine]
3 nM | Nc1nc(-c2ccco2)c2nnn(Cc3cc([N+](=O)[O-])ccc3F)c2n1 [Example 78, 3-(2-fluoro-5-nitrobenzyl)-7-(2-furyl)-3H-[1,2,3]triazolo[4,5-d]pyrimidine-5-amine]
2 nM | Nc1nc(-c2ccco2)c2nnn(Cc3ccccc3N)c2n1 [Example 13, 3-(2-aminobenzyl)-7-(2-furyl)-3H-[1,2,3]triazolo[4,5-d]pyrimidine-5-amine]
4 nM | Nc1nc(-c2ccco2)c2nnn(Cc3cccc([N+](=O)[O-])c3)c2n1 [Example 4, 7-(2-furyl)-3-(3-nitrobenzyl)-3H-[1,2,3]triazolo[4,5-d]pyrimidine-5-amine]
2 nM | COc1cccc(Cn2nnc3c(-c4ccco4)nc(N)nc32)c1 [Example 11, 7-(2-furyl)-3-(3-methoxybenzyl)-3H-[1,2,3]triazolo[4,5-d]pyrimidine-5-amine]
2 nM | Nc1nc(-c2ccco2)c2nnn(Cc3ccc(O)cc3)c2n1 [Example 221, 3-(4-Hydroxybenzyl)-7-(2-furyl)-3H-[1,2,3]triazolo[4,5-d]pyrimidine-5-amine]
